# System: immune cell subsets in PBMC cultures from HIV-1 infected subjects on cART
# Assay: Induced immune cell activation in PBMC cultures from HIV-1 infected subjects on cART (flow cytometry)
# Type: cell-based, human
# Details: for B Cells CD69 % / B Cells CD69 Fold vs DMSO / B Cells CD80 % / B Cells CD80 Fold vs DMSO / DCs CD69 % / DCs CD69 Fold vs DMSO / DCs CD80 % / DCs CD80 Fold vs DMSO / CD4+ T Cells CD25 % / CD4+ T Cells CD25 Fold vs DMSO / CD4+ T Cells CD69 % / CD4+ T Cells CD69 Fold vs DMSO / CD4+ T Cells Perforin % / CD4+ T Cells Perforin Fold vs DMSO / CD8+ T Cells CD25 % / CD8+ T Cells CD25 Fold vs DMSO / CD8+ T Cells CD28 % / CD8+ T Cells CD28 Fold vs DMSO / CD8+ T Cells CD38 % / CD8+ T Cells CD38 Fold vs DMSO / CD8+ T Cells CD69 % / CD8+ T Cells CD69 Fold vs DMSO / Monocytes CD11c % / Monocytes CD11c Fold vs DMSO / Monocytes CD69 % / Monocytes CD69 Fold vs DMSO / Monocytes CD80 % / Monocytes CD80 Fold vs DMSO / NK Cells CD25 % / NK Cells CD25 Fold vs DMSO / NK Cells CD69 % / NK Cells CD69 Fold vs DMSO: 2 days, geometric mean; for B Cells CD69 % / B Cells CD69 Fold vs DMSO / B Cells CD80 % / B Cells CD80 Fold vs DMSO / DCs CD69 % / DCs CD69 Fold vs DMSO / DCs CD80 % / DCs CD80 Fold vs DMSO: N = 4; for CD4+ T Cells CD25 % / CD4+ T Cells CD25 Fold vs DMSO / CD4+ T Cells CD69 % / CD4+ T Cells CD69 Fold vs DMSO / CD4+ T Cells Perforin % / CD4+ T Cells Perforin Fold vs DMSO / CD8+ T Cells CD25 % / CD8+ T Cells CD25 Fold vs DMSO / CD8+ T Cells CD28 % / CD8+ T Cells CD28 Fold vs DMSO / CD8+ T Cells CD38 % / CD8+ T Cells CD38 Fold vs DMSO / CD8+ T Cells CD69 % / CD8+ T Cells CD69 Fold vs DMSO / Monocytes CD11c % / Monocytes CD11c Fold vs DMSO / Monocytes CD69 % / Monocytes CD69 Fold vs DMSO / Monocytes CD80 % / Monocytes CD80 Fold vs DMSO / NK Cells CD25 % / NK Cells CD25 Fold vs DMSO / NK Cells CD69 % / NK Cells CD69 Fold vs DMSO: N = 6
# Procedure: TLR8 modulating compound affects activation of distinct cell populations, PBMCs were purified from HIV-1 infected subjects on cART, as described in Example 121 (anonymized participant IDs 184, 185, 188, 189, 190, and 191). […] After incubation, PBMCs were harvested and stained with antibodies conjugated to specific fluorophores (BD Biosciences) to delineate immune cell subsets: CD4 T cells (CD3+ CD4+ CD8-), CD8 T cells (CD3+ CD8+ CD4-), NK cells (CD3-CD56+ CD16+), monocytes (CD3-CD14+), B cells (CD3-CD19+), and peripheral dendritic cells (DCs), defined as positive for HLA-DR and negative for a panel of markers: CD3, CD14, CD16, CD19, CD20, CD56 (Lin-1 lineage panel, BD Biosciences).
# Additional markers of activation, maturation, and effector function were included for cell subsets, as follows: CD4 and CD8 T cells (CD25, CD38, CD69, IFN-γ, granzyme B, perforin, TNF-α), NK cells (CD25, CD69, IFN-γ), monocytes (CD11c, CD16, CD80, CD86, CD163, TNF-α), B cells (CD40, CD69, CD80, CD86), and DC (CD11c, CD69, CD80, CD86, CD123, and CD163). Cells were stained for surface markers (CD3, CD4, CD8, CD11c, CD14, CD16, CD25, CD69, CD80, CD86, CD163), washed, treated with fixation and permeabilization buffer (eBioscience), and stained for intracellular markers (IFN-γ, granzyme B, perforin, TNF-α). Cells were evaluated by flow cytometry on a LSR Fortessa (BD Biosciences), and data was analyzed with FlowJo software (TreeStar).
# Data are expressed as geometric mean percentage (%) and as geometric mean fold-activation (Fold) for each marker and for each PBMC subset obtained from 4 or 6 subjects, as indicated. Fold activation is calculated as a ratio of the % positive for each marker for each PBMC subset at the indicated concentration of the compound of Example 15 relative to % positive for DMSO treated samples. Fold activations that are 1.5 are in bold.
smiles,measurement,setting,value
CCCC[C@H](CO)Nc1nc(N)nc2cccnc12 [Example 15],B Cells CD69 %,Example 15 1000 nM,9.1%
same,B Cells CD69 Fold vs DMSO,Example 15 1000 nM,1.1 fold
same,B Cells CD80 %,Example 15 1000 nM,2.2%
same,B Cells CD80 Fold vs DMSO,Example 15 1000 nM,1.4 fold
same,DCs CD69 %,Example 15 1000 nM,8.5%
same,DCs CD69 Fold vs DMSO,Example 15 1000 nM,3.3 fold
same,DCs CD80 %,Example 15 1000 nM,82.0%
same,DCs CD80 Fold vs DMSO,Example 15 1000 nM,2.9 fold
same,CD4+ T Cells CD25 %,Example 15 1000 nM,4.2%
same,CD4+ T Cells CD25 Fold vs DMSO,Example 15 1000 nM,1.8 fold
same,CD4+ T Cells CD69 %,Example 15 1000 nM,11.7%
same,CD4+ T Cells CD69 Fold vs DMSO,Example 15 1000 nM,1.5 fold
same,CD4+ T Cells Perforin %,Example 15 1000 nM,14.2%
same,CD4+ T Cells Perforin Fold vs DMSO,Example 15 1000 nM,1.8 fold
same,CD8+ T Cells CD25 %,Example 15 1000 nM,0.7%
same,CD8+ T Cells CD25 Fold vs DMSO,Example 15 1000 nM,2.2 fold
same,CD8+ T Cells CD28 %,Example 15 1000 nM,0.4%
same,CD8+ T Cells CD28 Fold vs DMSO,Example 15 1000 nM,4.4 fold
same,CD8+ T Cells CD38 %,Example 15 1000 nM,56.8%
same,CD8+ T Cells CD38 Fold vs DMSO,Example 15 1000 nM,2.0 fold
same,CD8+ T Cells CD69 %,Example 15 1000 nM,10.4%
same,CD8+ T Cells CD69 Fold vs DMSO,Example 15 1000 nM,2.2 fold
same,Monocytes CD11c %,Example 15 1000 nM,1.2%
same,Monocytes CD11c Fold vs DMSO,Example 15 1000 nM,1.6 fold
same,Monocytes CD69 %,Example 15 1000 nM,6.2%
same,Monocytes CD69 Fold vs DMSO,Example 15 1000 nM,2.0 fold
same,Monocytes CD80 %,Example 15 1000 nM,86.4%
same,Monocytes CD80 Fold vs DMSO,Example 15 1000 nM,3.0 fold
same,NK Cells CD25 %,Example 15 1000 nM,5.2%
same,NK Cells CD25 Fold vs DMSO,Example 15 1000 nM,10.4 fold
same,NK Cells CD69 %,Example 15 1000 nM,21.1%
same,NK Cells CD69 Fold vs DMSO,Example 15 1000 nM,12.4 fold
same,B Cells CD69 %,Example 15 3000 nM,13.6%
same,B Cells CD69 Fold vs DMSO,Example 15 3000 nM,1.7 fold
same,B Cells CD80 %,Example 15 3000 nM,3.0%
same,B Cells CD80 Fold vs DMSO,Example 15 3000 nM,1.9 fold
same,DCs CD69 %,Example 15 3000 nM,23.2%
same,DCs CD69 Fold vs DMSO,Example 15 3000 nM,8.9 fold
same,DCs CD80 %,Example 15 3000 nM,57.1%
same,DCs CD80 Fold vs DMSO,Example 15 3000 nM,2.0 fold
same,CD4+ T Cells CD25 %,Example 15 3000 nM,3.0%
same,CD4+ T Cells CD25 Fold vs DMSO,Example 15 3000 nM,1.3 fold
same,CD4+ T Cells CD69 %,Example 15 3000 nM,13.1%
same,CD4+ T Cells CD69 Fold vs DMSO,Example 15 3000 nM,1.7 fold
same,CD4+ T Cells Perforin %,Example 15 3000 nM,17.0%
same,CD4+ T Cells Perforin Fold vs DMSO,Example 15 3000 nM,2.1 fold
same,CD8+ T Cells CD25 %,Example 15 3000 nM,0.9%
same,CD8+ T Cells CD25 Fold vs DMSO,Example 15 3000 nM,3.0 fold
same,CD8+ T Cells CD28 %,Example 15 3000 nM,0.5%
same,CD8+ T Cells CD28 Fold vs DMSO,Example 15 3000 nM,4.7 fold
same,CD8+ T Cells CD38 %,Example 15 3000 nM,56.8%
same,CD8+ T Cells CD38 Fold vs DMSO,Example 15 3000 nM,2.0 fold
same,CD8+ T Cells CD69 %,Example 15 3000 nM,11.6%
same,CD8+ T Cells CD69 Fold vs DMSO,Example 15 3000 nM,2.5 fold
same,Monocytes CD11c %,Example 15 3000 nM,1.5%
same,Monocytes CD11c Fold vs DMSO,Example 15 3000 nM,2.1 fold
same,Monocytes CD69 %,Example 15 3000 nM,7.9%
same,Monocytes CD69 Fold vs DMSO,Example 15 3000 nM,2.6 fold
same,Monocytes CD80 %,Example 15 3000 nM,77.4%
same,Monocytes CD80 Fold vs DMSO,Example 15 3000 nM,2.7 fold
same,NK Cells CD25 %,Example 15 3000 nM,4.8%
same,NK Cells CD25 Fold vs DMSO,Example 15 3000 nM,9.6 fold
same,NK Cells CD69 %,Example 15 3000 nM,20.1%
same,NK Cells CD69 Fold vs DMSO,Example 15 3000 nM,11.8 fold
same,Concentrations of maximal activation of NK cells,increased expression of CD25 and CD69,1000 nM
same,Concentrations of maximal activation of B cells,increased expression of CD69 and CD80,3000 nM

# From patent US20170071944A1, “MODULATORS OF TOLL-LIKE RECEPTORS FOR THE TREATMENT OF HIV” (Gilead Sciences, Inc., priority 2015, published 2017)
